Measured values reported in patent publication US9072703B2 (Ipsen Pharma S.A.S., priority 2008, dated 2015).
Non-standard residues stand in square brackets, D forms with d. No end group written: not given here. *: point of attachment. Myristoyl = CCCCCCCCCCCCCC(=O)*; Ac6c = NC1(C(=O)O)CCCCC1; Nle = CCCC[C@H](N)C(=O)O; Orn = NCCC[C@H](N)C(=O)O; Ac5c = NC1(C(=O)O)CCCC1; Aib = CC(C)(N)C(=O)O

Experiments:
[1] = Rat plasma half-life assay; format: in vitro ADME; details: 37° C., LC-MS, read-out: Rat Plasma T½ (converted)
Procedure: (§1) B. Human and Rat Plasma Half-Life Assay
(§2) 50 μL was removed at various times, like at 0, 1, 2, 3, 4, 8, 24, 32, 48, 56, 72 hours, mixed with 5 μL formic acid and 150 μL acetonitrile in a microcentrifuge tube, vertexed, and centrifuged for 10 minutes at 10K rpm. The supernatant was transferred to an injection vial and analyzed by LC-MS. The LC-MS system consisted of an API4000 mass spectrometer with an ESI probe. Positive ion mode and full scan detection were used. HPLC separation was carried out on a Luna 3μ C8 (2), 2×30 mm column with a gradient from 90% A to 90% B in 10 minutes at a flow rate of 0.3 ml/min. Buffer A was 1% formic acid in water and buffer B was 1% formic acid acetonitrile.

[2] = Human plasma half-life assay; format: in vitro ADME; details: 37° C., LC-MS, read-out: Human Plasma T½ (converted)
Procedure: as §1, §2

Sprague Dawley rats = experiment: Determination of in vivo insulin secretion in normal rats; set-up: species or system rat
Procedure: D. Determination of In Vivo Insulin Secretion in Normal Rats
Male Sprague Dawley rats with a body weight of approximately 275-300 g were used as experimental subjects. The day prior to the treatment, right atrial cannulae were implanted via the jugular vein under chlorohydrate. Each cannula was filled with 100 u/ml heparin saline and tied. The rats were fasted for approximately 18 hours prior to dosing with the compound or the vehicle (saline/0.25% BSA). The day of the experiment, aliquots of compound were thawed, brought to room temperature and vortexed thoroughly. A careful check was made for any sign of compound coming out of solution. 10 minutes prior to compound/glucose injection, a 500 μl blood sample was withdrawn and replaced with an equal volume of heparinized saline (10 u/ml). At time 0, a 500 μl blood sample was withdrawn through the cannula. Next, either the vehicle or the appropriate dose of the compound was injected into the cannula and pushed in with the glucose (1 g/kg) or vehicle solution. Finally, 500 μl of volume of heparinized saline (10 u/ml) was used to push in the remaining glucose through the cannula. Additional 500 μl blood samples were withdrawn at 2.5, 5, 10, and 20-minute post-glucose dosing; each immediately followed by a bolus, iv injection of 500 μl heparinized saline (10 u/ml) through the cannula. The plasma was collected from the blood samples by centrifugation, and stored at −20° C. until assay for insulin content.
The in vivo effect of the compound of Example 20 was determined in a separate test under the identical experimental conditions as described above, and numerical values of the total insulin secretion for the compound of Example 20 are summarized in Table 4.

[3] = target: T1, human recombinant GIP receptor (Homo sapiens, UniProt P48546); experiment: In vitro hGIP receptor binding assay
T1 construct: expressed in transfected cells; host or cells: CHO-K1 clonal cells (membrane preparation)
T1 sequence (P48546 22-466): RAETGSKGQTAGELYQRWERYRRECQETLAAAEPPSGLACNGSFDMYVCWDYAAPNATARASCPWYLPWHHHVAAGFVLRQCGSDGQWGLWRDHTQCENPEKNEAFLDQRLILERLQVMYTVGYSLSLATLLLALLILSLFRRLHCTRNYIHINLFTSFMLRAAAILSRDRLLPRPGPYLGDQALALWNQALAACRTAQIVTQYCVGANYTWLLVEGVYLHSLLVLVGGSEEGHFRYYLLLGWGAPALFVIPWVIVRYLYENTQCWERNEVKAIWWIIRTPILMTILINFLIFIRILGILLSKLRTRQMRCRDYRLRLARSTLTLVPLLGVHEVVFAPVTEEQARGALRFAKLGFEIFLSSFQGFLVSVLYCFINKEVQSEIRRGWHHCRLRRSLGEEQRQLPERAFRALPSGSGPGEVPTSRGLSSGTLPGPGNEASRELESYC
Procedure: The final assay volume was 0.5 ml. The incubations were terminated by rapid filtration through GF/C filters (pre-soaked in 0.5% polyethylenimine) using a Brandel filtration manifold. Each tube and filter were then washed three times with 5-ml aliquots of ice-cold buffer.

[4] = Table 3, fasted male Sprague Dawley rats, compound by cannula with glucose 1 g/kg, blood samples to 20 min

YAEGTFISDY[Ac5c]IAMDKIHQQDFVNWLLAQKGKKNDWKHN[Ac5c]TQ-OH [Example 2, (A5c^11, 40)hGIP(1-42)-OH]
half-life at 0.1 mg/ml [1]: 2.7 h | half-life at 0.1 mg/ml [2]: 14.1 h | AUC (total insulin secretion) (Sprague Dawley rats; [4]): 286.02

YAEGTFISDYSI[Aib]MDKIHQQDFVNWLLAQKGKKNDWKHN[Ac5c]TQ-OH [Example 7, (Aib^13, A5c^40)hGIP(1-42)-OH]
half-life at 0.1 mg/ml [1]: 1.7 h | half-life at 0.1 mg/ml [2]: 7 h | AUC (total insulin secretion) (Sprague Dawley rats; [4]): 176.90

YAEGTFISDYSI[Aib]MDKIHQQDFVNWLLAQKGKKNDWKHNITQD-NH2 [Example 5, (Aib^13, Asp^43)hGIP(1-43)-NH2]
half-life at 0.1 mg/ml [1]: 1.3 h | half-life at 0.1 mg/ml [2]: 5.5 h | AUC (total insulin secretion) (Sprague Dawley rats; [4]): 196.17

YAEGTF[Ac6c]SDYSIAMDKIHQQDFVNWLLAQK[Orn](Myristoyl)KKNDWKHNITQ-OH [Example 19, [A6c^7, Orn^31(N—C(O)—(CH2)12—CH3)]hGIP(1-42)-OH]
half-life at 0.1 mg/ml [1]: 54.6 h | Ki [3]: 18 nM | half-life at 0.1 mg/ml [2]: 6.3 h

YAEGTFISDYSI[Aib][Nle]DKIHQQDFVNWLLAQKGKKNDWKHN[Ac5c]TQ-OH [Example 6, (Aib^13, Nle^14, A5c^40)hGIP(1-42)-OH]
half-life at 0.1 mg/ml [1]: 1.9 h | half-life at 0.1 mg/ml [2]: 7.8 h | AUC (total insulin secretion) (Sprague Dawley rats; [4]): 180.31

YAEGTFISDY[Ac5c]IAMDKIHQQDFVNWLLAQKGKKNDWKHNITQN-OH [Example 4, (A5c^11, Asn^43)hGIP(1-43)-OH]
half-life at 0.1 mg/ml [1]: 4.1 h | half-life at 0.1 mg/ml [2]: 7.2 h | AUC (total insulin secretion) (Sprague Dawley rats; [4]): 265.11

Glucose-dependent insulinotropic polypeptide [GIP, reference compound]
AUC (total insulin secretion) (Sprague Dawley rats; [4]): 114.87

CC[C@H](C)[C@H](NC(=O)[C@H](CCCCN)NC(=O)[C@H](CC(=O)O)NC(=O)C1(NC(=O)[C@H](C)NC(=O)[C@@H](NC(=O)C2(NC(=O)[C@H](Cc3ccc(O)cc3)NC(=O)[C@H](CC(=O)O)NC(=O)[C@H](CO)NC(=O)[C@@H](NC(=O)[C@H](Cc3ccccc3)NC(=O)[C@@H](NC(=O)CNC(=O)[C@H](CCC(=O)O)NC(=O)[C@H](C)NC(=O)[C@@H](N)Cc3ccc(O)cc3)[C@@H](C)O)[C@@H](C)CC)CCCC2)[C@@H](C)CC)CCCC1)C(=O)N[C@@H](Cc1c[nH]cn1)C(=O)N[C@@H](CCC(N)=O)C(=O)N[C@@H](CCC(N)=O)C(=O)N[C@@H](CC(=O)O)C(=O)N[C@@H](Cc1ccccc1)C(=O)N[C@H](C(=O)N[C@@H](CC(N)=O)C(=O)N[C@@H](Cc1c[nH]c2ccccc12)C(=O)N[C@@H](CC(C)C)C(=O)N[C@@H](CC(C)C)C(=O)N[C@@H](C)C(=O)N[C@@H](CCC(N)=O)C(=O)N[C@@H](CCCCN)C(=O)NCC(=O)N[C@@H](CCCCN)C(=O)N[C@@H](CCCCN)C(=O)N[C@@H](CC(N)=O)C(=O)N[C@@H](CC(=O)O)C(=O)N[C@@H](Cc1c[nH]c2ccccc12)C(=O)N[C@@H](CCCCN)C(=O)N[C@@H](Cc1c[nH]cn1)C(=O)N[C@@H](CC(N)=O)C(=O)N[C@H](C(=O)N[C@H](C(=O)N[C@@H](CCC(N)=O)C(=O)N[C@@H](Cc1c[nH]cn1)C(=O)O)[C@@H](C)O)[C@@H](C)CC)C(C)C [Example 20, (A5c^11, 14, His^43)hGIP(1-43)-OH]
half-life at 0.1 mg/ml [1]: 4.9 h | half-life at 0.1 mg/ml [2]: 7.2 h | AUC (total insulin secretion) (Sprague Dawley rats; Table 4, separate test under identical experimental conditions): 149.39

CCCCCCCCCCCC(=O)NCCC[C@H](NC(=O)[C@H](CCCCN)NC(=O)CNC(=O)[C@H](CCCCN)NC(=O)[C@H](CCC(N)=O)NC(=O)[C@H](C)NC(=O)[C@H](CC(C)C)NC(=O)[C@H](CC(C)C)NC(=O)[C@H](Cc1c[nH]c2ccccc12)NC(=O)[C@H](CC(N)=O)NC(=O)[C@@H](NC(=O)[C@H](Cc1ccccc1)NC(=O)[C@H](CC(=O)O)NC(=O)[C@H](CCC(N)=O)NC(=O)[C@H](CCC(N)=O)NC(=O)[C@H](Cc1c[nH]cn1)NC(=O)[C@@H](NC(=O)[C@H](CCCCN)NC(=O)[C@H](CC(=O)O)NC(=O)[C@H](CCSC)NC(=O)[C@H](C)NC(=O)[C@@H](NC(=O)C1(NC(=O)[C@H](Cc2ccc(O)cc2)NC(=O)[C@H](CC(=O)O)NC(=O)[C@H](CO)NC(=O)[C@@H](NC(=O)[C@H](Cc2ccccc2)NC(=O)[C@@H](NC(=O)CNC(=O)[C@H](CCC(=O)O)NC(=O)[C@H](C)NC(=O)[C@@H](N)Cc2ccc(O)cc2)[C@@H](C)O)[C@@H](C)CC)CCCC1)[C@@H](C)CC)[C@@H](C)CC)C(C)C)C(=O)N[C@@H](CC(N)=O)C(=O)N[C@@H](CC(=O)O)C(=O)N[C@@H](Cc1c[nH]c2ccccc12)C(=O)N[C@@H](CCCCN)C(=O)N[C@@H](Cc1c[nH]cn1)C(=O)N[C@@H](CC(N)=O)C(=O)N[C@H](C(=O)N[C@H](C(=O)N[C@@H](CCC(N)=O)C(=O)N[C@@H](Cc1c[nH]cn1)C(=O)O)[C@@H](C)O)[C@@H](C)CC [Example 35, [A5c^11, Orn^33(N—C(O)—(CH2)10—CH3), His^43]hGIP(1-43)-OH]
half-life at 0.1 mg/ml [1]: 17 h | half-life at 0.1 mg/ml [2]: 9.5 h

CC[C@H](C)[C@H](NC(=O)[C@H](CCCCN)NC(=O)[C@H](CC(=O)O)NC(=O)[C@H](CCSC)NC(=O)[C@H](C)NC(=O)[C@@H](NC(=O)C1(NC(=O)[C@H](Cc2ccc(O)cc2)NC(=O)[C@H](CC(=O)O)NC(=O)[C@H](CO)NC(=O)[C@@H](NC(=O)[C@H](Cc2ccccc2)NC(=O)[C@@H](NC(=O)CNC(=O)[C@H](CCC(=O)O)NC(=O)[C@H](C)NC(=O)[C@@H](N)Cc2ccc(O)cc2)[C@@H](C)O)[C@@H](C)CC)CCCC1)[C@@H](C)CC)C(=O)N[C@@H](Cc1c[nH]cn1)C(=O)N[C@@H](CCC(N)=O)C(=O)N[C@@H](CCC(N)=O)C(=O)N[C@@H](CC(=O)O)C(=O)N[C@@H](Cc1ccccc1)C(=O)N[C@H](C(=O)N[C@@H](CC(N)=O)C(=O)N[C@@H](Cc1c[nH]c2ccccc12)C(=O)N[C@@H](CC(C)C)C(=O)N[C@@H](CC(C)C)C(=O)N[C@@H](C)C(=O)N[C@@H](CCC(N)=O)C(=O)N[C@@H](CCCCN)C(=O)NCC(=O)N[C@@H](CCCCN)C(=O)N[C@@H](CCCCN)C(=O)N[C@@H](CC(N)=O)C(=O)N[C@@H](CC(=O)O)C(=O)N[C@@H](Cc1c[nH]c2ccccc12)C(=O)N[C@@H](CCCCN)C(=O)N[C@@H](Cc1c[nH]cn1)C(=O)N[C@@H](CC(N)=O)C(=O)N[C@H](C(=O)N[C@H](C(=O)N[C@@H](CCC(N)=O)C(=O)N[C@@H](Cc1c[nH]cn1)C(=O)O)[C@@H](C)O)[C@@H](C)CC)C(C)C [Example 3, (A5c^11, His^43)hGIP(1-43)-OH]
half-life at 0.1 mg/ml [1]: 1.9 h | half-life at 0.1 mg/ml [2]: 7 h | AUC (total insulin secretion) (Sprague Dawley rats; [4]): 269.83

YAEGTFISDY[Ac5c]IAMDKIHQQDFVNWLLAQKGKKNDWKHNITQA-OH [Example 8, (A5c^11, Ala^43)hGIP(1-43)-OH]
half-life at 0.1 mg/ml [1]: 2.3 h | half-life at 0.1 mg/ml [2]: 7.4 h

YAEGTFISDY[Ac5c]IAMDKIHQQDFVNWLLAQKGKKNDWKHNI[Ac5c]Q-OH [Example 1, (A5c^11, 41)hGIP(1-42)-OH]
half-life at 0.1 mg/ml [1]: 2.2 h | half-life at 0.1 mg/ml [2]: 11.4 h | AUC (total insulin secretion) (Sprague Dawley rats; [4]): 304.92
